Reference: US20170119896A1, “TERMINALLY MODIFIED POLYMERS AND CONJUGATES THEREOF” (Mersana Therapeutics, Inc., priority 2012, published 2017)

Molecular target: T1, glucagon-like peptide-1 receptor (GLP1R CHO-K1 Gs overexpressing cells) (Homo sapiens, UniProt P43220)
T1 construct: host or cells: CHO-K1
Assay: DiscoveRx cAMP Hunter express GPCR Assay (cellular cAMP formation)
Assay type: cell-based
Conditions: 30 min at 37° C., cAMP chemiluminescent signal, four-parameter curve fitting
Method: The activity of terminally modified PHF exendin conjugates were measured using DiscoveRx cAMP Hunter express GPCR Assay which determines the cellular formation of a second messenger such as cAMP. […] It binds to glucagon-like peptide-1 receptor 1-G-protein coupled receptor (GPCR). Following stimulation of this receptor, intracellular signaling pathways are activated that lead to the production of intracellular second messengers, such as cAMP. Free cAMP molecules from cell lysates compete for antibody binding with a labeled enzyme donor (ED)-cAMP conjugate, which contains a small peptide fragment of β-galactosidase. In the absence of free cAMP, the ED-cAMP conjugates are captured by the cAMP-specific antibody and are unavailable for complementation with the enzyme acceptor (EA), resulting in a low signal. In the presence of free cAMP, antibody sites are occupied, allowing the ED-cAMP conjugate to complement with EA, forming an active β-galactosidase enzyme; substrate hydrolysis by this enzyme produces a chemiluminescent signal. The signal generated is in direct proportion to the amount of free cAMP […]. […] Luminescent signal was measured using a SpectraMax M5 plate reader (Molecular Devices). […] EC50 values were determined from four-parameter curve fitting.

T1 sequence (P43220 24-463): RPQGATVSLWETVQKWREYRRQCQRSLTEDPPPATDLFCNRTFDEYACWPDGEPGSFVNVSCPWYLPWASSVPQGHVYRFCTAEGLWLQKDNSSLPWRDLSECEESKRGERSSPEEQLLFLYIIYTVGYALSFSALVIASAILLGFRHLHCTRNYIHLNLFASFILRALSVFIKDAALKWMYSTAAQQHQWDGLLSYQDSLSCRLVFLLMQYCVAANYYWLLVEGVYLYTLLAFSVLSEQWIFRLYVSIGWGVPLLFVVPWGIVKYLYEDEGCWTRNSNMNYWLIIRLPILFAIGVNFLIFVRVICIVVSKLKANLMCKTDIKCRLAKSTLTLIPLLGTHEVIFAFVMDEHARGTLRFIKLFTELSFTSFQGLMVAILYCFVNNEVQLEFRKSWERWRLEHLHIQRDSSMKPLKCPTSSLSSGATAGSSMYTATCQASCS

## 50 kDa PHF-6-maleimido hexanamide-Exendin-4-Cys (i.e., (Exendin-4-Cys)-(N-(2-maleimido)propanamido)propyl)-ethylamino-50 kDa PHF) [Example 15]
  EC50: 1.87 nM
